From patent publication US8673929B2, “4,6-di- and 2,4,6-trisubstituted quinazoline derivatives and pharmaceutical compositions useful for treating viral infections” (priority 2006, dated 2014)

What was measured:
[1] = tested on: HCV replicon; assay: Anti-HCV replicon assay, EC50 (luciferase readout); type: cell-based; conditions: Hepatitis C virus, 72 h; Huh-7 HCV replicon cells, 3 days incubation, luciferase luminescence
Method in brief: (§1)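 Huh-7 cells harbouring an HCV replicon (6000/well) incubated 3 days at 37° C with 3-fold serially diluted compound (0.5% DMSO final where used). EC50 from luciferase luminescence of lysed cells; CC50 from CellTiter-Glo luminescence in parallel plates.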

[2] = CC50 assay in the anti-HCV replicon assay (CellTiter-Glo); type: cell-based, human; conditions: human, Huh-7 hepatoma cells harbouring an HCV replicon; Huh-7 HCV replicon cells, 3 days incubation, CellTiter-Glo luminescence
Method in brief: as §1

## Nc1nc(OCC2CCC2)c2cc(-c3ccsc3)ccc2n1 [Example 117, 4-Cyclobutylmethoxy-6-thiophen-3-yl-quinazolin-2-ylamine]
[1]
  EC50: 1000 to 10000 nM
[2]
  CC50 at 3 days: 10 to 20 µM

## Nc1nc(OCC2CCC2)c2cc(-c3cccnc3)ccc2n1 [Example 118, 4-Cyclobutylmethoxy-6-pyridin-3-yl-quinazolin-2-ylamine]
[1]
  EC50: 300 to 1000 nM
[2]
  CC50 at 3 days: 10 to 20 µM

## N#Cc1cccc(-c2ccc3nc(N)nc(OCC4CCC4)c3c2)c1 [Example 119, 3-(2-Amino-4-cyclobutylmethoxy-quinazolin-6-yl)-benzonitrile]
[1]
  EC50: 1000 to 10000 nM
[2]
  CC50 at 3 days: 10 to 20 µM

## Nc1nc(OCC2CCC2)c2cc(-c3cn[nH]c3)ccc2n1 [Example 120, 4-Cyclobutylmethoxy-6-(2H-pyrazol-4-yl)-quinazolin-2-ylamine]
[1]
  EC50: 300 to 1000 nM
[2]
  CC50 at 3 days: 10 to 20 µM

## Nc1nc(OCC2CCC2)c2cc(-c3ccc(F)c(F)c3F)ccc2n1 [Example 121, 4-Cyclobutylmethoxy-6-(2,3,4-trifluoro-phenyl)-quinazolin-2-ylamine]
[1]
  EC50: 1000 to 10000 nM
[2]
  CC50 at 3 days: > 20 µM

## N#Cc1ccc(-c2ccc3nc(N)nc(OCC4CCC4)c3c2)cc1 [Example 122, 4-(2-Amino-4-cyclobutylmethoxy-quinazolin-6-yl)-benzonitrile]
[1]
  EC50: 1000 to 10000 nM
[2]
  CC50 at 3 days: > 20 µM

## Nc1nc(OCC2CCC2)c2cc(-c3ccc(C(F)(F)F)cc3Cl)ccc2n1 [Example 124]
[1]
  EC50: 1000 to 10000 nM
[2]
  CC50 at 3 days: > 20 µM

## CCOc1nc(N)nc2ccc(-c3ccc(C(=O)N(C)C)cc3)cc12 [Example 125, 4-(2-Amino-4-ethoxy-quinazolin-6-yl)-N,N-dimethyl-benzamide]
[1]
  EC50: 300 to 1000 nM
[2]
  CC50 at 3 days: > 20 µM

## CCOc1nc(N)nc2ccc(-c3ccc(C(=O)N4CCCC4)cc3)cc12 [Example 126, [4-(2-Amino-4-ethoxy-quinazolin-6-yl)-phenyl]-pyrrolidin-1-yl-methanone]
[1]
  EC50: 1000 to 10000 nM
[2]
  CC50 at 3 days: > 20 µM

## CC(C)Oc1nc(N)nc2ccc(-c3ccc(C(=O)N(C)C)cc3)cc12 [Example 127, 4-(2-Amino-4-isopropoxy-quinazolin-6-yl)-N,N-dimethyl-benzamide]
[1]
  EC50: 1000 to 10000 nM
[2]
  CC50 at 3 days: > 20 µM

## CC(C)Oc1nc(N)nc2ccc(-c3ccc(C(=O)N4CCOCC4)cc3)cc12 [Example 128, [4-(2-Amino-4-isopropoxy-quinazolin-6-yl)-phenyl]-morpholin-4-yl-methanone]
[1]
  EC50: 1000 to 10000 nM
[2]
  CC50 at 3 days: > 20 µM

## CCOc1nc(N)nc2ccc(-c3ccc(C(=O)NCc4ccccc4)cc3)cc12 [Example 149, 4-(2-Amino-4-ethoxy-quinazolin-6-yl)-N-benzyl-benzamide]
[1]
  EC50: 1000 to 10000 nM
[2]
  CC50 at 3 days: > 20 µM

## CCOc1nc(N)nc2ccc(-c3ccc(C(=O)NCC(C)C)cc3)cc12 [Example 150, 4-(2-Amino-4-ethoxy-quinazolin-6-yl)-N-isobutyl-benzamide]
[1]
  EC50: 1000 to 10000 nM
[2]
  CC50 at 3 days: 10 to 20 µM

## CCOc1nc(N)nc2ccc(-c3ccc(C(=O)NC4CCCCC4)cc3)cc12 [Example 151, 4-(2-Amino-4-ethoxy-quinazolin-6-yl)-N-cyclohexyl-benzamide]
[1]
  EC50: 1000 to 10000 nM
[2]
  CC50 at 3 days: 10 to 20 µM

## CCCCNC(=O)c1ccc(-c2ccc3nc(N)nc(OCC)c3c2)cc1 [Example 152, 4-(2-Amino-4-ethoxy-quinazolin-6-yl)-N-butyl-benzamide]
[1]
  EC50: 300 to 1000 nM
[2]
  CC50 at 3 days: > 20 µM

## CCOc1nc(N)nc2ccc(-c3ccc(C(=O)NC(C)(C)C)cc3)cc12 [Example 153, 4-(2-Amino-4-ethoxy-quinazolin-6-yl)-N-tert-butyl-benzamide]
[1]
  EC50: 300 to 1000 nM
[2]
  CC50 at 3 days: 10 to 20 µM

## CCOc1nc(N)nc2ccc(-c3ccc(C(=O)NC4CCCC4)cc3)cc12 [Example 154, 4-(2-Amino-4-ethoxy-quinazolin-6-yl)-N-cyclopentyl-benzamide]
[1]
  EC50: 300 to 1000 nM
[2]
  CC50 at 3 days: 10 to 20 µM

## CCOc1nc(N)nc2ccc(-c3ccc(C(=O)NC(C)C)cc3)cc12 [Example 155, 4-(2-Amino-4-ethoxy-quinazolin-6-yl)-N-isopropyl-benzamide]
[1]
  EC50: 300 to 1000 nM
[2]
  CC50 at 3 days: 10 to 20 µM

## CCOc1nc(N)nc2ccc(-c3ccc(C(=O)NOC)cc3)cc12 [Example 156, 4-(2-Amino-4-ethoxy-quinazolin-6-yl)-N-methoxy-benzamide]
[1]
  EC50: 300 to 1000 nM
[2]
  CC50 at 3 days: > 20 µM

## CCOc1nc(N)nc2ccc(-c3ccc(C(=O)NCc4ccco4)cc3)cc12 [Example 157, 4-(2-Amino-4-ethoxy-quinazolin-6-yl)-N-furan-2-ylmethyl-benzamide]
[1]
  EC50: 1000 to 10000 nM
[2]
  CC50 at 3 days: > 20 µM

## CCOc1nc(N)nc2ccc(-c3ccc(C(=O)N4CCSC4)cc3)cc12 [Example 158, [4-(2-Amino-4-ethoxy-quinazolin-6-yl)-phenyl]-thiazolidin-3-yl-methanone]
[1]
  EC50: 1000 to 10000 nM
[2]
  CC50 at 3 days: > 20 µM

## CCOc1nc(N)nc2ccc(-c3ccc(C(=O)NCCN(C)C)cc3)cc12 [Example 159]
[1]
  EC50: < 300 nM
[2]
  CC50 at 3 days: < 10 µM

## CCOc1nc(N)nc2ccc(-c3ccc(C(=O)Nc4ccccn4)cc3)cc12 [Example 160, 4-(2-Amino-4-ethoxy-quinazolin-6-yl)-N-pyridin-2-yl-benzamide]
[1]
  EC50: 1000 to 10000 nM
[2]
  CC50 at 3 days: > 20 µM

## CCOc1nc(N)nc2ccc(-c3ccc(C(=O)Nc4ccc(F)cc4)cc3)cc12 [Example 161, 4-(2-Amino-4-ethoxy-quinazolin-6-yl)-N-(4-fluoro-phenyl)-benzamide]
[1]
  EC50: 300 to 1000 nM
[2]
  CC50 at 3 days: < 10 µM

## CCOc1nc(N)nc2ccc(-c3ccc(C(=O)N4CCSCC4)cc3)cc12 [Example 162, [4-(2-Amino-4-ethoxy-quinazolin-6-yl)-phenyl]-thiomorpholin-4-yl-methanone]
[1]
  EC50: 1000 to 10000 nM
[2]
  CC50 at 3 days: > 20 µM

## CCOc1nc(N)nc2ccc(-c3ccc(C(=O)NC4=NCCS4)cc3)cc12 [Example 163, 4-(2-Amino-4-ethoxy-quinazolin-6-yl)-N-(4,5-dihydro-thiazol-2-yl)-benzamide]
[1]
  EC50: 1000 to 10000 nM
[2]
  CC50 at 3 days: > 20 µM

## CCOc1nc(N)nc2ccc(-c3ccc(C(=O)NC)c(Cl)c3)cc12 [Example 164, 4-(2-Amino-4-ethoxy-quinazolin-6-yl)-2-chloro-N-methyl-benzamide]
[1]
  EC50: 1000 to 10000 nM
[2]
  CC50 at 3 days: > 20 µM

## CCOc1nc(N)nc2ccc(-c3ccc(C(=O)NC4CC4)c(Cl)c3)cc12 [Example 165, 4-(2-Amino-4-ethoxy-quinazolin-6-yl)-2-chloro-N-cyclopropyl-benzamide]
[1]
  EC50: 1000 to 10000 nM
[2]
  CC50 at 3 days: > 20 µM

## CCOc1nc(N)nc2ccc(-c3cccc(O)c3)cc12 [Example 166, 3-(2-Amino-4-ethoxy-quinazolin-6-yl)-phenol]
[1]
  EC50: 1000 to 10000 nM
[2]
  CC50 at 3 days: 10 to 20 µM

## CCOc1nc(N)nc2ccc(-c3ccc(C(=O)NC4CC4)cc3)cc12 [Example 167, 4-(2-Amino-4-ethoxy-quinazolin-6-yl)-N-cyclopropyl-benzamide]
[1]
  EC50: < 300 nM
[2]
  CC50 at 3 days: > 20 µM

## CCOc1nc(N)nc2ccc(-c3cccc(C(=O)NC)c3)cc12 [Example 168, 3-(2-Amino-4-ethoxy-quinazolin-6-yl)-N-methyl-benzamide]
[1]
  EC50: 1000 to 10000 nM
[2]
  CC50 at 3 days: > 20 µM

## CC(C)Oc1nc(N)nc2ccc(-c3ccc(C(=O)N4CCCCC4)cc3)cc12 [Example 169, [4-(2-Amino-4-isopropoxy-quinazolin-6-yl)-phenyl]-piperidin-1-yl-methanone]
[1]
  EC50: 1000 to 10000 nM
[2]
  CC50 at 3 days: > 20 µM
